The results in this text go back to patent publication US4062948A, “Dihydromocimycin antibiotics” (Gist-Brocades N.V., priority 1970, dated 1977).

The test system of the experiment is microorganism causing Treponema dysentery. As to the kind of experiment: pigs infected with Treponema dysentery (Example VI). The format is in vivo. The source says: Twenty pigs, 3 months old, were infected with the microorganism causing Treponema dysentery by administering to them feed mixed with a homogenous mixture of contents of the intestines and intestinal mucous membranes of two animals suffereing from the disease. The infected pigs were divided into four groups of five animals each and the animals were fed with the feed as a slurry diluted 1:1 with water for 1 week. The total amount of feed per animal was 1.2 kg each day and was given in two portions.
After 5 days, the first symptoms of the disease were observed from the thin faeces and confirmed by a microbiological investigation of the faeces and […] a week, the animals were treated as follows:
group 2: 100 ppm of tylosin were added to the feed;
group 3: 25ppm of dihydromocimycin were added to the feed; and
group 4: 50 ppm of dihydromocimycin were added to the feed.
The antibiotic-enriched feed was administered for a week. After that week, feed without any antibiotic was given again. Recovery from the infection was observed from the weights of the animals and from inspection samples of the faeces, macroscopically from their consistencies, and microscopically by means of a specific immuno-fluoroescence technique. During the test, one animal of each of groups 1, 3 and 4 died.
The results are shown in the following Table wherein the weights indicated are the averages at that time of the still living animals. The consistency of the faeces is indicated as follows:
+ means thin liquid; ± means thick liquid; - means normal. The results of the immuno-fluorescence technique are indicated quantitatively by indicating the number of Treponemas in the visual field: 5 means very crowded; 4 means many; 3 means about 10 Treponemas; 2 means 1 or 2 Treponemas, 1 means more visual fields necessary to find one Treponema, and - means negative.

Where [1] appears, read: dihydromocimycin 50 ppm, after 3 weeks, one symbol per animal.

The structures appear in SMILES notation.

Regarding `CC=CC=CC1OC(O)(C(CC)C(=O)NCC=CC=C(C)C(OC)C(C)C2OC(C=CC=CC=C(C)C(=O)C3=C(O)CCNC3=O)C(O)C2O)C(O)C(O)C1(C)C` (centres unmarked) [dihydromocimycin], under “administered amounts taken into account”, the “activity relative to tylosin” value is given as “at least 4 times”. For the same compound, the Weights is on record as 21.3 kg (dihydromocimycin 25 ppm group, after 1 week (start of antibiotics)); 24.2 kg (dihydromocimycin 25 ppm group, just before infection (baseline)); 20.2 kg (dihydromocimycin 25 ppm, after 2 weeks); 24.0 kg (dihydromocimycin 25 ppm, after 3 weeks); 21.6 kg (dihydromocimycin 50 ppm group, after 1 week (start of antibiotics)); 23.4 kg (dihydromocimycin 50 ppm group, just before infection (baseline)). Also, the Weights runs as follows: (dihydromocimycin 50 ppm, after 2 weeks) 21.2 kg; (dihydromocimycin 50 ppm, after 3 weeks) 23.0 kg. For the same compound, under setting [1], the Faeces consistency entry is “-- +-”. Further, under setting [1], the Immunofluorescence result was “-- -- -- --”. The “speed of cure compared with tylosin” value (faeces consistency and immunofluorescence) is “cured markedly faster than the animals treated with tylosin”. Also, the “animals died during the test” value is listed as “one” (group 3, dihydromocimycin 25 ppm) and “one” (group 4, dihydromocimycin 50 ppm).
